For series [1] the following is noted: A. J. GOWER et al., Eur. J. Pharmacol., 222, (1992), 193-203; cited from earlier work.
The test system of series [2] is MPTP-lesioned marmoset model of Parkinson's disease. The experiment in a line: L-DOPA-induced dyskinesia score, MPTP-lesioned marmoset (Example 2). It counts as in vivo, marmosets (Callithrix jacchus). The conditions noted are these: for Dyskinesia: first hour post drug administration, vs L-DOPA + vehicle, p<0.05. On the procedure: (§1) This study was designed to investigate whether the compound ((2S)-2-[(4S)-4-(2,2-difluorovinyl)-2-oxopyrrolidinyl]butanamide) (named compound A) has anti-dyskinetic activity in the 1-methyl-4-phenyl-1,2,3,6-tetrahydropyridine (MPTP)—lesioned marmoset model of Parkinson's disease. The effect of the compound A on L-3,4-dihydroxyphenylalanine (L-DOPA)-induced dyskinesias and alleviation of anti parkinsonism symptoms was investigated.
(§2) The study was performed on nine adult marmosets (Callithrix jacchus) bred in a closed colony. The marmosets were rendered parkinsonian by subcutaneous injection of 2 mg/kg MPTP for 5 consecutive days. The marmosets were allowed to recover for 18 weeks until their parkinsonism became stable. The degree of activity and disability before and after MPTP treatment was assessed using a combination of scales that measure locomotor activity, mobility, bradykinesia and posture. Animals were treated with L-DOPA (13.9+/−0.8 mg/kg b.i.d. for 6 weeks) to prime them to elicit dyskinesia.
(§3) All drugs were administered orally in a volume of 5 ml/kg via a syringe in the animal's home cage. The animals were immediately transferred to the experimental cage (60 cm×55 cm×75 cm, with the perch 25 cm from floor of cage) for behavioural assessment. Vehicle was apple juice in all cases.
3)Dyskinesia—non-parametric measures based on the following scale
Dyskinesia score: 0=Absent, 1=Mild, fleeting, 2=Moderate, not interfering with normal activity, 3=Marked, at times interfering with normal activity, 4=Severe, continuous, replacing normal activity.
(§4) Behaviour was assessed for 6 hours post drug administration. Behavioural test 1, activity, was assessed every 5 minutes for 6 hours post drug administration. Behavioural tests 2 and 3, parkinsonian disability and dyskinesia, respectively, were assessed for 10 minutes every 30 minutes over the course of 6 hours, by post hoc analysis of video-recordings by an observer blinded to the treatment. The score given in each 10 minutes time period represents the maximum score achieved during that time period.
Four doses of compound A drug (1 mg/kg, 3 mg/kg, 10 mg/kg and 30 mg/kg) in combination with a single dose of L-DOPA were tested using a randomized treatment schedule. The actions of each of these four combination therapies were compared with that of L-DOPA plus the appropriate vehicle. Thus, a total of five treatments were given.

The test system is the same in series [3]. The experiment in a line: Parkinsonian disability score with L-DOPA, MPTP-lesioned marmoset (Example 2). It counts as in vivo, marmosets (Callithrix jacchus). Conditions: for Disability scores: compound A 1, 3, 10 and 30 mg/kg + L-DOPA, p>0.05. On the procedure:
as §1, §2, §3
(§5) 2) Parkinsonian disability—non-parametric measures based on the following scales
(§6) a) Range of movement score: 0=no movement, 1=movement of head on the floor of the cage, 2=movement of limbs, but no locomotion, on the floor of the cage, 3=movement of head or trunk on wall of cage or perch, 4=movement of limbs, but no locomotion, on wall of cage or perch, 5=walking around floor of cage or eating from hopper on floor, 6=hopping on floor of cage, 7=climbing onto wall of cage or perch, 8=climbing up and down the walls of the cage or along perch, 9=running, jumping, climbing between cage walls/perch/roof, uses limbs through a wide range of motion and activity.
(§7) b) Bradykinesia score: 0=normal speed and initiation of movement, 1=mild slowing of movement, 2=moderate slowing, difficulty initiating and maintaining movement, marked freezing, 3=akinetic, unable to move, with prolonged freezing episodes
(§8) c) Postural abnormality score: 0=normal, upright, holds head up, normal balance, 1=abnormal, crouched, face down, may lose balance. […]
(§9) Behaviour was assessed for 6 hours post drug administration. Behavioural test 1, activity, was assessed every 5 minutes for 6 hours post drug administration. Behavioural tests 2 and 3, parkinsonian disability and dyskinesia, respectively, were assessed for 10 minutes every 30 minutes over the course of 6 hours, by post hoc analysis of video-recordings by an observer blinded to the treatment. […]

For series [4] the test system is unchanged. As to the kind of experiment: L-DOPA-induced dyskinesia score, MPTP-lesioned marmoset (Example 1). The conditions noted are these: L-DOPA 12 mg/kg alone, oral. The series is classed as in vivo, marmosets (Callithrix jacchus). As for the experimental part:
(§10) This study was designed to investigate whether levetiracetam has anti-dyskinetic activity in the 1-methyl-4-phenyl-1,2,3,6-tetrahydropyridine (MPTP)-lesioned marmoset model of Parkinson's disease. The effect of levetiracetam on L-3,4-dihydroxyphenylalanine (L-DOPA)-induced dyskinesias and alleviation of parkinsonism symptoms was investigated.
(§11) The study was performed on seven adult marmosets (Callithrix jacchus) bred in a closed colony. The marmosets were rendered parkinsonian by subcutaneous injection of 2 mg/kg MPTP for 5 consecutive days. The marmosets were allowed to recover for 18 weeks until their parkinsonism became stable. The degree of activity and disability before and after MPTP treatment was assessed using a combination of scales that measure locomotor activity, mobility, bradykinesia and posture. Animals were treated with L-DOPA (12.5 mg/kg b.i.d. for 6 weeks) to prime them to elicit dyskinesia.
as §3
3)Dyskinesia—non-parametric measures based on the following scale Dyskinesia score: 0=Absent, 1=Mild, fleeting, 2=Moderate, not interfering with normal activity, 3=Marked, at times interfering with normal activity, 4=Severe, continuous, replacing normal activity.
as §4
Table 1 outlines the randomised treatment schedule i.e. three doses of levetiracetam drug in combination with a single dose of L-DOPA. The actions of each of these three combination therapies were compared with that of L-DOPA plus the appropriate vehicle. Thus, a total of four treatments were given.

Series [5] shares this test system. As to the kind of experiment: Parkinsonian disability score with L-DOPA, MPTP-lesioned marmoset (Example 1). The series is classed as in vivo, marmosets (Callithrix jacchus). Conditions: L-DOPA 12 mg/kg alone, oral. As for the experimental part:
as §10, §11, §3, §5, §6, §7, §8, §9

[6] abbreviates: L-DOPA alone (13.9+/−0.8 mg/kg), oral.

Turning to `CC[C@H](C(N)=O)N1CCCC1=O` [(R)-(+)-α-ethyl-2-oxo-1-pyrrolidine-acetamide], in series [1], the “Activity in the treatment of epilepsy” value was “completely devoid of activity”.

Turning to `CC[C@@H](C(N)=O)N1C[C@H](C=C(F)F)CC1=O` [compound A, (2S)-2-[(4S)-4-(2,2-difluorovinyl)-2-oxopyrrolidinyl]butanamide], the Dyskinesia entry in series [2] (compound A 10 mg/kg + L-DOPA 13.9+/−0.8 mg/kg oral) and in series [2] (compound A 30 mg/kg + L-DOPA 13.9+/−0.8 mg/kg oral) was “significantly reduced” in each case. Also, the Dyskinesia scores entry in series [2] (compound A 1, 3, 10 and 30 mg/kg + L-DOPA, any time-point after one hour post drug administration, p>0.05) was “no significant differences”. Further, the Disability scores result in series [3] (any time-point after one hour post drug administration) and in series [3] (first hour post drug administration) was “no significant differences” in each case. Besides, the “Reversal of parkinsonian symptoms at peak effect, compared with L-DOPA monotherapy” value in series [3] (compound A 1 to 30 mg/kg + L-DOPA 13.9+/−0.8 mg/kg) is on record as “same magnitude”.

On to `N[C@@H](Cc1ccc(O)c(O)c1)C(=O)O` [L-DOPA, L-3,4-dihydroxyphenylalanine], for which the figures for the “Dyskinesia accompanying alleviation of parkinsonian symptoms” value in series [4] and in series [2] (setting [6]) were “severe dyskinesia” and “accompanied by dyskinesia”, respectively. For the same compound, the “Effect on parkinsonian symptoms” value in series [5] and in series [3] (setting [6]) was “reversed parkinsonian symptoms” throughout.

These data come from US20040242671A1, “Use of 2-oxo-1-pyrrolidine derivatives for the preparation of a drug” (priority 2001, published 2004).
